From patent EP1944022A1, “PHARMACEUTICAL COMPOSITIONS COMBINING […] ANTICONVULSANT AGENTS FOR THE TREATMENT OF CHRONIC AND ACUTE PAIN” (ESPINOZA ABDALA, Leopoldo de Jesús, priority 2005, dated 2007)

System: nociceptive pain
Test: uric acid-induced knee joint inflammation and pain in rats, recovery of Functionality Ratio (AUC over 4 hours)
Assay type: in vivo, female Wistar rats
Conditions: rat
Procedure: An experimental preclinical study was performed that compares the analgesic effect of tramadol and gabapentin administered individually and in combination, using female Wistar rats weighting from 160 to 180 g, which were intraarticularly injected 0.05 ml uric acid suspended in mineral oil into knee joint of left hindleg under anesthesia in order to cause inflammation and pain. An electrode was connected at the plantar region of hindlegs. The rats were placed in a roller of 30 cm of diameter rotating at 4 rpm during two-minute periods. The time of contact between each electrode of the rats' hindlegs and the roller was registered. The data are expressed as Functionality Ratio (FR). […] At the same time the medicaments, alone or in combination, were administered, and the Functionality Ratio every 30 minutes for 4 hours was determined. […]
Doses used for the combination were 3.16, 5.62, 10.0 or 17.78, 31.62, 56.23, 100.0 mg/kg of tramadol and those used for gabapentin were 31.6, 56.2, 100.0, 177.8, 316.2 mg/kg. Thus, the possible synergistic interaction (a total of 24 combinations) was analyzed.
The synergism between gabapentin and tramadol was calculated with the synergistic interaction surface analysis and an isobolographic method (Tallarida et al., 1989). The area under the curve (AUC) was calculated for each of the combinations and for each of the components.

Structure (SMILES)	total analgesic effect, area under the curve (AUC) (gabapentin alone 316.2 mg/kg, 4-hours observation period)	total analgesic effect, area under the curve (AUC) (in vivo)
NCC1(CC(=O)O)CCCCC1 [Gabapentin]	121.5 ± 30.3 area units	–
COc1cccc(C2(O)CCCCC2CN(C)C)c1 (mixture of isomers) [tramadol, (±) cis-2-[(dimethylamino)methyl]-1-(3-metoxyphenyl) cyclohexanol]	–	207.7 ± 24.7 area units
